Results from patent US20090197897A1, “Novel Oxadiazole Derivatives and Their Use as Positive Allosteric Modulators of Metabotropic Glutamate Receptors” (Addex Pharma SA, priority 2005, published 2009).

What was measured:
[1] = target: T1, rat mGluR5 (Rattus norvegicus, UniProt P31424); assay: mGluR5 assay on HEK-expressing rat mGluR5 (fluorescent cell based Ca2+ mobilization assay); conditions: HEK-293 cells stably expressing rat mGluR5; no co-addition of glutamate; mean of at least three independent experiments in duplicate; read-out: Ca++ Flux (mean EC50)
T1 construct: expressed in transfected cells
Description: mGluR5 Assay on HEK-Expressing Rat mGluR5
Positive functional expression of HEK-293 cells stably expressing rat mGluR5 receptor was determined by measuring intracellular Ca^2+ changes using a Fluorometric Imaging Plate Reader (FLIPR, Molecular Devices, Sunnyvale, Calif.) in response to glutamate or selective known mGluR5 agonists and antagonists. Rat mGluR5 RT-PCR products in HEK-293 cells were sequenced and found 100% identical to rat mGluR5 Genbank reference sequence (NM_017012). HEK-293 cells expressing rmGluR5 were maintained in media containing DMEM, dialyzed Fetal Bovine Serum (10%), Glutamax™ (2 mM), Penicillin (100 units/ml), Streptomycin (100 μg/ml), Geneticin (100 μg/ml) and Hygromycin-B (40 μg/ml) at 37° C./5% CO2.
After one day of incubation, cells were washed with assay buffer containing: 142 mM NaCl, 6 mM KCl, 1 mM […], 1 mM CaCl2, 20 mM HEPES, 1 g/L glucose, 0.125 mM sulfinpyrazone, pH 7.4. After 60 min of loading with 4 uM Fluo-4 (TefLabs, Austin, Tex.), the cells were washed three times with 50 μl of PBS Buffer and resuspended in 45 μl of assay Buffer. The plates were then transferred to a Fluorometric Imaging Plate Reader (FLIPR, Molecular Devices, Sunnyvale, Calif.) for the assessment of intracellular calcium flux. After monitoring the baseline fluorescence for 10 seconds, increasing concentrations of representative compound (from 0.01 to 60 μM) of the present invention diluted in Assay Buffer (15 μl of 4× dilutions) was added to the cell. The final DMSO concentration in the assay was 0.3%. In each experiment, fluorescence was then monitored as a function of time for 3 minutes and the data analyzed using Microsoft Excel and GraphPad Prism. Each data point was also measured two times.
Under these experimental conditions, this HEK-rat mGluR5 cell line is able to directly detect positive allosteric modulators without the need of co-addition of glutamate or mGluR5 agonist.
The concentration-response curves of representative compounds of the present invention were generated using the Prism GraphPad software (Graph Pad Inc, San Diego, USA). The curves were fitted to a four-parameter logistic equation:
(Y=Bottom+(Top−Bottom)/(1+10̂((Log EC50−X)*Hill Slope)
allowing determination of EC50 values.
The Table 1 below represents the mean EC50 obtained from at least three independent experiments of selected molecules performed in duplicate.

T1 sequence (P31424 21-1171 isoform P31424-2 limits assumed): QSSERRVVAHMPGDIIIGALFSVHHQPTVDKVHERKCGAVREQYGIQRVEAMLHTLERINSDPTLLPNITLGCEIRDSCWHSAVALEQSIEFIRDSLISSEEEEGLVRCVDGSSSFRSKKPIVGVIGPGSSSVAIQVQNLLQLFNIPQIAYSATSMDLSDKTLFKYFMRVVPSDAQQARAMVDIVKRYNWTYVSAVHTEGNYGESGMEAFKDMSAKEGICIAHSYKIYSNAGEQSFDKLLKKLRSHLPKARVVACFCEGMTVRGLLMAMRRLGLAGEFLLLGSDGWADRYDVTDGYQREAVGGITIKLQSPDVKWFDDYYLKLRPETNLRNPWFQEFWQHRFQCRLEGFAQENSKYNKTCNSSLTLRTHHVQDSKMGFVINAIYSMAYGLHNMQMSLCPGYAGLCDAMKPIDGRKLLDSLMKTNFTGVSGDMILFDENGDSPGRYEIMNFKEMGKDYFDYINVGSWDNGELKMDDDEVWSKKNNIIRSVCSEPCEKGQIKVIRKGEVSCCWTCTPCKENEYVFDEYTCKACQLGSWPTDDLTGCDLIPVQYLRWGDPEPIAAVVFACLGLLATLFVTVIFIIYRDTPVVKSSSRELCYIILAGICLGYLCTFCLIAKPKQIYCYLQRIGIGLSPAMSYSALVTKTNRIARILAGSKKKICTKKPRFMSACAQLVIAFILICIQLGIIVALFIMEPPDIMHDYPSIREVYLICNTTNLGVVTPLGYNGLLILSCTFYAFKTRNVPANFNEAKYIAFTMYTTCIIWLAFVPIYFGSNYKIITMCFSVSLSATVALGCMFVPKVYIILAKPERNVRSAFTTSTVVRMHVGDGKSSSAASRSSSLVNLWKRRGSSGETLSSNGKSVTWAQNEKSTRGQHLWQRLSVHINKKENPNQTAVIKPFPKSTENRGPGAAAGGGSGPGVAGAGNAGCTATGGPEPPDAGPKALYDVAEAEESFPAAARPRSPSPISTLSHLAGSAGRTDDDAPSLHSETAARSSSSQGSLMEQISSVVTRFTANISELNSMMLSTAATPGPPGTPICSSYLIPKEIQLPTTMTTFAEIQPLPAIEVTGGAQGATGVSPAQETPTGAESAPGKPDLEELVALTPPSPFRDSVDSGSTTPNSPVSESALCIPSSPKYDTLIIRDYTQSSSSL

Row | SMILES | EC50 [1] [nM] | melting point [°C]
1 | O=C(c1cccc2c1OCCO2)N1CCC[C@H](c2nc(-c3ccc(F)cc3)no2)C1 [Example 25, (S)-(2,3-Dihydro-benzo[1,4]dioxin-5-yl)-{3-[3-(4-fluoro-phenyl)-[1,2,4]oxadiazol-5-yl]-piperidin-1-yl}-methanone] | 1000 to 10000 | 57 to 60
2 | COc1cc(C(=O)N2CCC[C@H](c3nc(-c4ccc(F)cc4)no3)C2)ccc1F [Example 26, (S)-(4-Fluoro-3-methoxy-phenyl)-{3-[3-(4-fluoro-phenyl)-[1,2,4]oxadiazol-5-yl]-piperidin-1-yl}-methanone] | 1000 to 10000 | 109 to 111
3 | CN(C)c1ccc(-c2noc([C@H]3CCCN(C(=O)c4ccc(F)cc4)C3)n2)cc1 [Example 58, {(S)-3-[3-(4-Dimethylamino-phenyl)-[1,2,4]oxadiazol-5-yl]-piperidin-1-yl}-(4-fluoro-phenyl)-methanone] | > 10000 | 147 to 153
4 | O=C(c1c(F)cc(F)cc1F)N1CCC[C@H](c2nc(-c3ccc(F)cc3)no2)C1 [Example 12, {(S)-3-[3-(4-Fluoro-phenyl)-[1,2,4]oxadiazol-5-yl]-piperidin-1-yl}-(2,4,6-trifluoro-phenyl)-methanone] | 1000 to 10000 | 125 to 130
5 | O=C(c1ccc(F)nc1)N1CCC[C@H](c2nc(-c3ccccc3)no2)C1 [Example 62, (6-Fluoro-pyridin-3-yl)-[(S)-3-(3-phenyl-[1,2,4]oxadiazol-5-yl)-piperidin-1-yl]-methanone] | < 1000 | 
6 | Cc1c(C(=O)N2CCC[C@H](c3nc(-c4ccc(F)cc4)no3)C2)cnn1C [Example 21, (1,5-Dimethyl-1H-pyrazol-4-yl)-{(S)-3-[3-(4-fluoro-phenyl)-[1,2,4]oxadiazol-5-yl]-piperidin-1-yl}-methanone] | 1000 to 10000 | 
7 | O=C(c1cccc(COc2ccccc2)c1)N1CCC[C@H](c2nc(-c3ccc(F)cc3)no2)C1 [Example 6, {(S)-3-[3-(4-Fluoro-phenyl)-[1,2,4]oxadiazol-5-yl]-piperidin-1-yl}-(3-phenoxymethyl-phenyl)-methanone] | > 10000 | 
8 | Cc1cccc(-c2noc([C@H]3CCCN(C(=O)c4ccc(F)cc4)C3)n2)n1 [Example 33, (4-Fluoro-phenyl)-{(S)-3-[3-(6-methyl-pyridin-2-yl)-[1,2,4]oxadiazol-5-yl]-piperidin-1-yl}-methanone] | 1000 to 10000 | 
9 | Cc1cc(F)ccc1C(=O)N1CCC[C@H](c2nc(-c3ccc(F)cc3)no2)C1 [Example 32, (4-Fluoro-2-methyl-phenyl)-{(S)-3-[3-(4-fluoro-phenyl)-[1,2,4]oxadiazol-5-yl]-piperidin-1-yl}-methanone] | < 1000 | 
10 | O=C(C1CCc2cc(F)ccc21)N1CCC[C@H](c2nc(-c3ccc(F)cc3)no2)C1 (stereo partly drawn) [Example 8, (5-Fluoro-indan-1-yl)-{(S)-3-[3-(4-fluoro-phenyl)-[1,2,4]oxadiazol-5-yl]-piperidin-1-yl}-methanone] | > 10000 | 
11 | Cc1ncc(-c2noc([C@H]3CCCN(C(=O)c4ccc(F)c(F)c4)C3)n2)s1 [Example 75, (3,4-Difluoro-phenyl)-{(S)-3-[3-(2-methyl-thiazol-5-yl)-[1,2,4]oxadiazol-5-yl]-piperidin-1-yl}-methanone] | 1000 to 10000 | 
12 | Cc1nnsc1C(=O)N1CCC[C@H](c2nc(-c3ccc(F)cc3)no2)C1 [Example 13, {(S)-3-[3-(4-Fluoro-phenyl)-[1,2,4]oxadiazol-5-yl]-piperidin-1-yl}-(4-methyl-[1,2,3]thiadiazol-5-yl)-methanone] | 1000 to 10000 | 
13 | Cc1ncc(-c2noc([C@H]3CCCN(C(=O)c4ccc(F)cc4F)C3)n2)s1 [Example 74, (2,4-Difluoro-phenyl)-{(S)-3-[3-(2-methyl-thiazol-5-yl)-[1,2,4]oxadiazol-5-yl]-piperidin-1-yl}-methanone] | 1000 to 10000 | 

Results, then the compound that gave them:

Row | EC50 [1] [nM] | melting point [°C] | SMILES
14 | 1000 to 10000 | 98 to 100 | O=C(C1CCOCC1)N1CCC[C@H](c2nc(-c3ccc(F)cc3)no2)C1 [Example 9, {(S)-3-[3-(4-Fluoro-phenyl)-[1,2,4]oxadiazol-5-yl]-piperidin-1-yl}-(tetrahydro-pyran-4-yl)-methanone]
15 | 1000 to 10000 | 138 to 140 | O=C(c1ccc(F)cc1)N1CCC=C(c2nc(-c3ccc(F)cc3)no2)C1 [Example 1, (4-Fluoro-phenyl)-{5-[3-(4-fluoro-phenyl)-[1,2,4]oxadiazol-5-yl]-3,6-dihydro-2H-pyridin-1-yl}-methanone]
16 | 1000 to 10000 | 59 to 63 | Cc1cnccc1C(=O)N1CCC[C@H](c2nc(-c3ccc(F)cc3)no2)C1 [Example 27, (S)-{3-[3-(4-Fluoro-phenyl)-[1,2,4]oxadiazol-5-yl]-piperidin-1-yl}-(3-methyl-pyridin-4-yl)-methanone]
17 | 1000 to 10000 |  | Cc1ccc(-c2noc([C@H]3CCCN(C(=O)c4ccc(F)cc4)C3)n2)o1 [Example 34, (4-Fluoro-phenyl)-{(S)-3-[3-(5-methyl-furan-2-yl)-[1,2,4]oxadiazol-5-yl]-piperidin-1-yl}-methanone]
18 | 1000 to 10000 |  | COCc1oncc1C(=O)N1CCC[C@H](c2nc(-c3ccc(F)cc3)no2)C1 [Example 47, {(S)-3-[3-(4-Fluoro-phenyl)-[1,2,4]oxadiazol-5-yl]-piperidin-1-yl}-(5-methoxymethyl-isoxazol-4-yl)-methanone]
19 | 1000 to 10000 |  | O=C(c1ccc(OC(F)(F)F)cc1)N1CCC[C@H](c2nc(-c3ccc(F)cc3)no2)C1 [Example 76, {(S)-3-[3-(4-Fluoro-phenyl)-[1,2,4]oxadiazol-5-yl]-piperidin-1-yl}-(4-trifluoromethoxy-phenyl)-methanone]
20 | > 10000 |  | COc1ccsc1C(=O)N1CCC[C@H](c2nc(-c3ccc(F)cc3)no2)C1 [Example 31, {(S)-3-[3-(4-Fluoro-phenyl)-[1,2,4]oxadiazol-5-yl]-piperidin-1-yl}-(3-methoxy-thiophen-2-yl)-methanone]
21 | < 1000 |  | O=C(c1ccc(F)nc1)N1CCC[C@H](c2nc(-c3ccc(F)cc3F)no2)C1 [Example 66, {(S)-3-[3-(2,4-Difluoro-phenyl)-[1,2,4]oxadiazol-5-yl]-piperidin-1-yl}-(6-fluoro-pyridin-3-yl)-methanone]
22 | > 10000 |  | Cc1cccnc1-c1noc([C@H]2CCCN(C(=O)c3ccc(F)cc3)C2)n1 [Example 40, (4-Fluoro-phenyl)-{(S)-3-[3-(3-methyl-pyridin-2-yl)-[1,2,4]oxadiazol-5-yl]-piperidin-1-yl}-methanone]
23 | < 1000 |  | O=C(c1ccc(F)cc1)N1CCC[C@H](c2nc(-c3cccs3)no2)C1 [Example 37, (4-Fluoro-phenyl)-[(S)-3-(3-thiophen-2-yl-[1,2,4]oxadiazol-5-yl)-piperidin-1-yl]-methanone]
24 | 1000 to 10000 |  | Cc1ncc(-c2noc([C@H]3CCCN(C(=O)c4ccc(F)cc4)C3)n2)s1 [Example 72, (4-Fluoro-phenyl)-{(S)-3-[3-(2-methyl-thiazol-5-yl)-[1,2,4]oxadiazol-5-yl]-piperidin-1-yl}-methanone]
25 | 1000 to 10000 |  | O=C(c1cccnc1F)N1CCC[C@H](c2nc(-c3ccc(F)cc3)no2)C1 [Example 14, {(S)-3-[3-(4-Fluoro-phenyl)-[1,2,4]oxadiazol-5-yl]-piperidin-1-yl}-(2-fluoro-pyridin-3-yl)-methanone]
26 | < 1000 |  | O=C(c1ccc(F)cc1)N1CCC[C@H](c2nc(-c3ccsc3)no2)C1 [Example 38, (4-Fluoro-phenyl)-[(S)-3-(3-thiophen-3-yl-[1,2,4]oxadiazol-5-yl)-piperidin-1-yl]-methanone]
27 | 1000 to 10000 |  | Cc1occc1C(=O)N1CCC[C@H](c2nc(-c3ccc(F)cc3)no2)C1 [Example 24, {(S)-3-[3-(4-Fluoro-phenyl)-[1,2,4]oxadiazol-5-yl]-piperidin-1-yl}-(2-methyl-furan-3-yl)-methanone]
28 | < 1000 |  | Cc1oncc1C(=O)N1CCC[C@H](c2nc(-c3ccccc3F)no2)C1 [Example 61, {(S)-3-[3-(2-Fluoro-phenyl)-[1,2,4]oxadiazol-5-yl]-piperidin-1-yl}-(5-methyl-isoxazol-4-yl)-methanone]
29 | < 1000 |  | Cc1oncc1C(=O)N1CCC[C@H](c2nc(-c3ccsc3)no2)C1 [Example 44, (5-Methyl-isoxazol-4-yl)-[(S)-3-(3-thiophen-3-yl-[1,2,4]oxadiazol-5-yl)-piperidin-1-yl]-methanone]
